The data set relates to PRMT6. Briefly: Lentiviral shRNA knock-down tested in motor-neuron cell lines. Format: cell-based. The settings on record: lentiviral transduction of motor-neuron cell lines. How it is done:
Transgenes to express shRNA against PRMT6 (shPRMT6 #1, SEQ ID NO: 232 and shPRMT6 #2, SEQ ID NO: 233) and the corresponding scramble were cloned into lentiviral constructs (pLKO.1-puro).
HEK293T cells were transfected by calcium phosphate with lentiviral vectors together with pCMV-dR8.91 (Delta 8.9) plasmids containing gag, pol, and rev genes and VSV-G envelope plasmid. At 16 hours post-transfection, medium was replaced with fresh medium, and 24 hours later it was collected, centrifuged at 1000×g for 10 minutes (to pellet and thus remove any cellular debris), filtered through 0.45-μm pores, and stored at −80° C. in aliquots. To quantify viruses, 10 μL of viral particles were lysed for 10 minutes at room temperature by adding an equal volume of 2× lysis buffer [0.25% Triton X-100, 50 mM KCl, 100 mM Tris-HCl pH 7.4, 40% glycerol, and 0.8 U/μL RNase inhibitor (RiboLock, Fermentas)]. Lysates were added to a single-step RT-PCR assay with 3.5 nM MS2 RNA (Roche) as template, 500 nM of each primer and hot-start Taq (Truestart Hotstart Taq, Fermentas), all in 20 mM Tris-Cl pH 8.3, 5 mM (NH4)2SO4, 20 mM KCl, 5 mM MgCl2, 0.1 mg/ml BSA, 1/20,000 SYBR Green I (Invitrogen, #S7563), and 200 µM dNTPs. […]

The results in this text go back to patent US20260207649A1, “LSD1 INHIBITOR AND PRMT6 INHIBITOR FOR USE IN THE TREATMENT OF A DISEASE ASSOCIATED WITH GAIN-OF-FUNCTION OF ANDROGEN RECEPTOR (AR) AND/OR WITH OVEREXPRESSION OF AN AR COACTIVATOR” (FONDAZIONE TELETHON ETS(30%), priority 2022, published 2026).

In the case of “shPRMT6 #1: shRNA against PRMT6 in lentiviral construct pLKO.1-puro, caccggcauucugagcaucuu (CACCGGCAUUCUGAGCAUCUU)”, the knock-down efficiency result was “most efficient knock-down”.
